Consider one molecule from ChEMBL document CHEMBL1208688, “Synthesis and biological evaluation of novel benzodioxinocarbazoles (BDCZs) as potential anticancer agents” (Bioorg Med Chem Lett, 2010).

Assay [1] concerns the target T1, DNA topoisomerase 1 (Homo sapiens) (UniProt P11387).
T1 sequence (whole entry): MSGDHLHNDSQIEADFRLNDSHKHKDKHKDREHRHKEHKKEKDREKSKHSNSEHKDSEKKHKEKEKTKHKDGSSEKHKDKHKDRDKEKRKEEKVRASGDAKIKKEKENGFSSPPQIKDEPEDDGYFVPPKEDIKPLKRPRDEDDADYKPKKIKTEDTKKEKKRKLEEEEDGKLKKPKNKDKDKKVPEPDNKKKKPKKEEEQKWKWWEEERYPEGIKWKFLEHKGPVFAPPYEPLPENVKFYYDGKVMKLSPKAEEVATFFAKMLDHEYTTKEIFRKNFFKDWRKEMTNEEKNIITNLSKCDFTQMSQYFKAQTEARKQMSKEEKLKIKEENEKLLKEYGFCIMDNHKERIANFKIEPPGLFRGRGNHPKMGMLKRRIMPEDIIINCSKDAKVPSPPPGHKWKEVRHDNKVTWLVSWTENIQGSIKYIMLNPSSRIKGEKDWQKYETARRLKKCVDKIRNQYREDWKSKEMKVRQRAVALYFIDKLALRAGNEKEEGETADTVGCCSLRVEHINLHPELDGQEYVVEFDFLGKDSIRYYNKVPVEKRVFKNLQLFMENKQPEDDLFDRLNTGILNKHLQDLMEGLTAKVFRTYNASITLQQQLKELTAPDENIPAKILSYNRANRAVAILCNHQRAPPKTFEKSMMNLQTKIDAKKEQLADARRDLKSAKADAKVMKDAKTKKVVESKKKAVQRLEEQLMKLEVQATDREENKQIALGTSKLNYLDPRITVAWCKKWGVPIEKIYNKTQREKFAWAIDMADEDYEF
Put plainly: Inhibition of topoisomerase 1.

Assay [2] addresses DNA topoisomerase 2-alpha (Homo sapiens) (UniProt P11388). Put plainly: Inhibition of topoisomerase 2.

Molecules are shown by their SMILES. Activity calls are given as the source filed them. No cut-off for these calls is given here.

Chain of DNA topoisomerase 2-alpha (Homo sapiens) (P11388 whole entry): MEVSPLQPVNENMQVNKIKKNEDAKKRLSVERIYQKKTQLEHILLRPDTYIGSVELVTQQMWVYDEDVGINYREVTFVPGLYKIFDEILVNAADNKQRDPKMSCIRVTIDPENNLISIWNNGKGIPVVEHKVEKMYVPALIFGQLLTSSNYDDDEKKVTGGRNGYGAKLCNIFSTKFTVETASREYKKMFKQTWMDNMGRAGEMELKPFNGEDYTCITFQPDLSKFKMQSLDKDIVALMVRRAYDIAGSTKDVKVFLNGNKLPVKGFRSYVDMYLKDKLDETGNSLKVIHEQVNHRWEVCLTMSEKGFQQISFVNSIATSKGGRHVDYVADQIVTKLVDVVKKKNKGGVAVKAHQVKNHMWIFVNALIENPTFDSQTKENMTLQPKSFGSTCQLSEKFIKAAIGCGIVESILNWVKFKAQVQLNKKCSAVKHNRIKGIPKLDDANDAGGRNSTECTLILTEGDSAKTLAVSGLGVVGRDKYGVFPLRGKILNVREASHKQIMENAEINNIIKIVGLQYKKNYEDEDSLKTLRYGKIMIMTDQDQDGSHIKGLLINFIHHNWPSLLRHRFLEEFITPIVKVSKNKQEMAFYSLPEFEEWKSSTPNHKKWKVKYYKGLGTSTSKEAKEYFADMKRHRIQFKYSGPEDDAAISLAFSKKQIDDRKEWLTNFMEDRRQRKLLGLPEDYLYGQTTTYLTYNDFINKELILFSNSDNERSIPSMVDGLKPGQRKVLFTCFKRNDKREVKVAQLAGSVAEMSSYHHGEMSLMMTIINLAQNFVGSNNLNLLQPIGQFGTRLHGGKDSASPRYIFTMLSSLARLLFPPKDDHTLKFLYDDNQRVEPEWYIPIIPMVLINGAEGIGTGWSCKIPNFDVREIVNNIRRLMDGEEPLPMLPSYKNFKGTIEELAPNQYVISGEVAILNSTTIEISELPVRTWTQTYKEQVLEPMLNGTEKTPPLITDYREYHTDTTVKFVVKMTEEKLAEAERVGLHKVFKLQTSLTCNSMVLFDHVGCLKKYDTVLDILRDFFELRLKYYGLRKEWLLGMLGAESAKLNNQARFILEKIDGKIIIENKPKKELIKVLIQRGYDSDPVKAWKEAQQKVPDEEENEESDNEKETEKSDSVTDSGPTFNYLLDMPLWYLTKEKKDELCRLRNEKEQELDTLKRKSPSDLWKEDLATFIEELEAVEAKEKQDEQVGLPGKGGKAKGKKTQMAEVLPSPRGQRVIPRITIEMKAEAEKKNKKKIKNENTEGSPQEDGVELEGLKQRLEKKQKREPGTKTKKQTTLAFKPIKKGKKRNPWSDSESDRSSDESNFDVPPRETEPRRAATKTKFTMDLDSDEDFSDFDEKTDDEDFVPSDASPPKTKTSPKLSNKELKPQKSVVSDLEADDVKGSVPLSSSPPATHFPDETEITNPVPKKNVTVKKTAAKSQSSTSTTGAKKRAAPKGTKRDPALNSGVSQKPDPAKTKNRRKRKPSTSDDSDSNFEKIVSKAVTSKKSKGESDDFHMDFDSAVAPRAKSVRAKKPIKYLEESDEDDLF

As for `CN(C)CCn1c(=O)c2c3oc4ccccc4oc3c3[nH]c4ccc(O)cc4c3c2c1=O`, the inhibition entry in assay [1] and in assay [2] was “inactive” throughout.
